The data set can be described thus: Storage stability of Ivacaftor APO-I polymorph at 25±2° C. / 60%±5% RH. The data set is classed as physicochemical. As for the experimental part: Ivacaftor APO-I polymorph samples were packed in an inner antistatic polyethylene bag sealed with a cable tie encased within a heat sealed composite aluminum out bag under nitrogen within a HDPE drum. The samples were then tested for stability after storing at 25±2° C. with 60%±5% relative humidity (RH). Impurities, drug concentrations, polymorph stability and other parameters were measured at intervals during the storage.

With `CC(C)(C)c1cc(C(C)(C)C)c(NC(=O)c2c[nH]c3ccccc3c2=O)cc1O` [Ivacaftor APO-I polymorph, N-(2,4-di-tert-butyl-5-hydroxyphenyl)-1,4-dihydro-4-oxoquinoline-3-carboxamide], where the note is “12 months”, the “Assay (by HPLC)” value amounted to 99.8% and the Description result is recorded as “Off white”. In addition, where the note is “Initial”, the “Assay (by HPLC)” value is listed as 99.1%, the Description result is “Off white” and the “XRPD (polymorph stability)” value is “APO-I”.
